Test systems include HCT-116 colon; HOP-62 NSCLC; SK-MEL-5 melanoma; T-47D breast; TK-10 renal; UACC-62 melanoma; RXF 393 renal.
What all share (experiment): DTP human tumour cell line panel, 48 h

Where “and” joins values, the source holds several entries; their conditions need not be identical. Equal entries are not always repeated.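 Each compound was tested at five concentrations against cells in 96-well plates for 48 hours. At the GI50, growth is halved. Definition used: TGI = concentration required for complete inhibition of growth.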 Some results are limits rather than exact numbers.

By GI50 is commonly meant the concentration that inhibits growth by half. What is called TGI is the concentration at which net growth stops. The low end stands for greater sensitivity of the cells, the high end for lower sensitivity of the cells. Take `COC(=O)c1cc2c(cc1Cl)SC(N(N(C)C)S(=O)(=O)c1ccc(Cl)cc1)=NS2(=O)=O`: the GI50 in the experiment on HCT-116 colon is 15.6 µM; with HOP-62 NSCLC, 19.6 µM; with SK-MEL-5 melanoma it was 14.6 µM; with T-47D breast it was 8.42 µM; with TK-10 renal, 19.2 µM; with UACC-62 melanoma, 17 µM. The TGI in the experiment on HCT-116 colon was found to be 29 µM; in the experiment on HOP-62 NSCLC it was 48.7 µM; with SK-MEL-5 melanoma, 27.7 µM; with T-47D breast, 26.7 µM; in the experiment with TK-10 renal, 53.3 µM; with UACC-62 melanoma, 35.6 µM.
`CCOC(=O)c1cnc2c(cnn2CC)c1NN=C(C)C`: the GI50 in the experiment on HCT-116 colon was 47.1 µM; in the experiment with HOP-62 NSCLC, 65.9 µM; with RXF 393 renal it was 11.4 µM; with SK-MEL-5 melanoma, 33.1 µM; with T-47D breast, 29 µM; with TK-10 renal it was 27.1 µM. In the experiment with UACC-62 melanoma, the GI50 is 45.3 µM. Moreover, the TGI in the experiment with HCT-116 colon is greater than 100 µM; with HOP-62 NSCLC, greater than 100 µM; in the experiment on RXF 393 renal, 70 µM; with SK-MEL-5 melanoma, greater than 100 µM; in the experiment with T-47D breast, greater than 100 µM; in the experiment with TK-10 renal, greater than 100 µM. Also, in the experiment with UACC-62 melanoma, the concentration for total growth inhibition (TGI) was greater than 100 µM.
Consider `C=C1C(=O)O[C@H]2[C@H]1CC(=O)/C(C)=C\CC[C@@]1(C)O[C@@H]21`, for which the GI50 with HCT-116 colon is 1.26 µg/mL; in the experiment with HOP-62 NSCLC, 4.31 µg/mL; in the experiment with RXF 393 renal, 2.95 µg/mL; in the experiment with SK-MEL-5 melanoma, 2.99 µg/mL; with T-47D breast it was 2.57 µg/mL; with TK-10 renal it was 1.93 µg/mL. Further, the GI50 with UACC-62 melanoma is 2.75 µg/mL. For the same compound, the TGI with HCT-116 colon came out at 4.97 µg/mL; in the experiment with HOP-62 NSCLC, 8.45 µg/mL; in the experiment with RXF 393 renal, 9.41 µg/mL; in the experiment on SK-MEL-5 melanoma, 8.73 µg/mL; in the experiment on T-47D breast, 9.53 µg/mL; with TK-10 renal, 5.38 µg/mL. Also, the TGI with UACC-62 melanoma was 6.02 µg/mL.
For `C#CC#CC#CC#CC#CC#CC#CC#CCC1OC[C@H](COC(=O)O[C@@H](C(=O)O[C@H]2C[C@@]3(O)[C@@H](OC(=O)c4ccccc4)[C@@H]4[C@]5(OC(C)=O)CO[C@@H]5C[C@H](O)[C@@]4(C)C(=O)[C@H](OC(C)=O)C(=C2C)C3(C)C)[C@@H](NC(=O)c2ccccc2)c2ccccc2)O1` (stereo not given in full), the concentration for 50% growth inhibition (GI50) in the experiment on HCT-116 colon was 0.145 µM; in the experiment with HOP-62 NSCLC, 1.37 µM; with RXF 393 renal it was 1.25 µM; with SK-MEL-5 melanoma it was 1.47 µM; in the experiment with T-47D breast, 0.516 µM; in the experiment on TK-10 renal, greater than 21.5 µM. The GI50 with UACC-62 melanoma was 0.907 µM. For the same compound, the TGI in the experiment on HCT-116 colon is greater than 33.3 µM; in the experiment with HOP-62 NSCLC, greater than 33.3 µM; in the experiment on RXF 393 renal it was greater than 15.3 µM; in the experiment on SK-MEL-5 melanoma, greater than 33.3 µM; in the experiment with T-47D breast, greater than 33.3 µM; in the experiment with TK-10 renal it was greater than 33.3 µM. This compound also showed a TGI in the experiment with UACC-62 melanoma greater than 33.3 µM.
For the compound `Nc1c(O)c(S(=O)(=O)O)c(O)c2c1C(=O)c1ccccc1C2=O`, the GI50 in the experiment on HCT-116 colon was 2.78 µM; in the experiment with HOP-62 NSCLC, 2.92 µM; in the experiment on RXF 393 renal it was 3.37 µM; in the experiment with SK-MEL-5 melanoma, 1.97 µM; with T-47D breast, 2.36 µM; in the experiment with TK-10 renal, 2.91 µM. Moreover, the GI50 in the experiment on UACC-62 melanoma is 3.21 µM. In addition, the TGI with HCT-116 colon was 10.9 µM; with HOP-62 NSCLC it was greater than 100 µM; with RXF 393 renal, greater than 100 µM; with SK-MEL-5 melanoma, 4.07 µM; with T-47D breast, 7.37 µM; in the experiment on TK-10 renal, 9.73 µM. The TGI in the experiment with UACC-62 melanoma was found to be 65.6 µM.
As for `O=C1C=C(Nc2nc(C(=O)O)cc(=O)[nH]2)c2ccccc2C1=O`, the TGI in the experiment on HCT-116 colon, in the experiment on HOP-62 NSCLC, with RXF 393 renal, in the experiment on SK-MEL-5 melanoma, with T-47D breast and in the experiment on TK-10 renal was greater than 100 µM each time. The TGI in the experiment with UACC-62 melanoma was greater than 100 µM.
As to `CC12CCC(O)CC1CCC1C2CCC2(C)C(C3=CC(=O)OC3)CCC12` (stereo not given), the GI50 in the experiment on HCT-116 colon is 25.5 µM; in the experiment with HOP-62 NSCLC, 9.53 µM; in the experiment on RXF 393 renal, 7.76 µM; in the experiment on SK-MEL-5 melanoma it was greater than 100 µM; in the experiment on T-47D breast, 22.3 µM; with TK-10 renal, 19.6 µM. For the same compound, the GI50 in the experiment on UACC-62 melanoma is 0.522 µM. In addition, the total growth inhibition concentration (TGI) with HCT-116 colon is greater than 100 µM; in the experiment on HOP-62 NSCLC it was 44.9 µM; in the experiment on RXF 393 renal, 42.5 µM; in the experiment on SK-MEL-5 melanoma, greater than 100 µM; with T-47D breast, greater than 100 µM; in the experiment with TK-10 renal, 66.4 µM.
As for `C=CCNc1cccc2c1C(=O)c1ccccc1C2(O)CC=C` (stereo not given), the GI50 in the experiment with HCT-116 colon was 17.7 µM; in the experiment on HOP-62 NSCLC, 24.2 µM; in the experiment with SK-MEL-5 melanoma it was 16 µM; in the experiment with T-47D breast, 32.2 µM; in the experiment on TK-10 renal, 25.2 µM; in the experiment on UACC-62 melanoma, 10.6 µM. Further, the TGI is 32.3 µM in the experiment with HCT-116 colon; 61.2 µM in the experiment on HOP-62 NSCLC; 30.2 µM with SK-MEL-5 melanoma; greater than 100 µM with T-47D breast; 57.8 µM in the experiment with TK-10 renal; 24.4 µM with UACC-62 melanoma.
As to `COc1ccc2sc3c(NCCCNCCO)nc4ccccc4c3c(=O)c2c1`, the GI50 in the experiment on HCT-116 colon was 1.59 µM; with HOP-62 NSCLC, 1.59 µM; in the experiment on RXF 393 renal it was 1.31 µM; in the experiment on SK-MEL-5 melanoma, 1.76 µM; in the experiment with TK-10 renal it was 1.83 µM; in the experiment on UACC-62 melanoma it was 1.7 µM. Besides, the concentration for total growth inhibition (TGI) with HCT-116 colon was 3.03 µM; in the experiment on HOP-62 NSCLC, 3.26 µM; in the experiment on RXF 393 renal, 2.7 µM; in the experiment on SK-MEL-5 melanoma, 3.18 µM; with TK-10 renal it was 3.38 µM; with UACC-62 melanoma, 3.16 µM.
Regarding `CS(=O)(=O)CS(=O)CS(=O)CS(=O)CC(NC(=O)CCC(N)C(=O)O)C(=O)O` (stereo not given), the TGI in the experiment on HCT-116 colon, in the experiment with HOP-62 NSCLC, with SK-MEL-5 melanoma, with T-47D breast, in the experiment with TK-10 renal and with UACC-62 melanoma was greater than 100 µM throughout.
Regarding `O=[N+]([O-])c1ccc2c(c1)S(=O)c1ccccc1-2` (stereo not given), the TGI with HCT-116 colon, with HOP-62 NSCLC, in the experiment on SK-MEL-5 melanoma, in the experiment on T-47D breast, with TK-10 renal and in the experiment with UACC-62 melanoma was greater than 100 µM in each case.
Take `COP1(=S)OCC2CCC[C@@H]2O1` (stereo not given in full): the TGI in the experiment with HCT-116 colon, in the experiment with RXF 393 renal, in the experiment with SK-MEL-5 melanoma, in the experiment with T-47D breast, in the experiment on TK-10 renal and in the experiment with UACC-62 melanoma was greater than 100 µM each time.
Regarding `N#Cc1ccc2oc3ccc(C#N)cc3c(=O)c2c1`, the TGI with HCT-116 colon was greater than 100 µM; in the experiment on RXF 393 renal, 42.8 µM; in the experiment with SK-MEL-5 melanoma, 17.6 µM; in the experiment on T-47D breast it was greater than 100 µM; with TK-10 renal, 73.4 µM; in the experiment with UACC-62 melanoma it was 41.6 µM.
With `CN(C)CCCC(=O)Nc1ccc(Cn2nnc3c2C(=O)c2nnn(Cc4ccc(NC(=O)CCCN(C)C)cc4)c2C3=O)cc1`, the GI50 in the experiment with HCT-116 colon was 3.03 µM; in the experiment with HOP-62 NSCLC it was 17.2 µM; with RXF 393 renal, 5 µM; in the experiment on SK-MEL-5 melanoma, 1.48 µM; with TK-10 renal, greater than 100 µM. The total growth inhibition concentration (TGI) with HCT-116 colon was 11.6 µM; in the experiment with HOP-62 NSCLC, 32.8 µM; with RXF 393 renal it was 21.6 µM; with SK-MEL-5 melanoma, 2.84 µM; in the experiment with TK-10 renal, greater than 100 µM.
Turning to `Cc1ccc(-n2c(-c3ccc(Cl)cc3)cs/c2=N\NC(=O)COc2n[nH]c(=O)c3ccccc23)cc1`, the GI50 in the experiment with HOP-62 NSCLC is 51.8 µM; with RXF 393 renal it was 30.8 µM; in the experiment on SK-MEL-5 melanoma, greater than 100 µM; with T-47D breast, greater than 100 µM; with TK-10 renal, 52.7 µM; in the experiment on UACC-62 melanoma, 23.4 µM. The total growth inhibition concentration (TGI) in the experiment on HOP-62 NSCLC, in the experiment with RXF 393 renal, with SK-MEL-5 melanoma, in the experiment with T-47D breast, in the experiment on TK-10 renal and with UACC-62 melanoma was greater than 100 µM each time.
`COc1cc2c3c(n(C)c(=O)c2cc1OC)-c1cc2c(cc1/C3=C\[C@@H](N)CCCCN)OCO2`: the GI50 in the experiment with HCT-116 colon is 0.329 µM; in the experiment with HOP-62 NSCLC, 3.14 µM; in the experiment on RXF 393 renal, 12.7 µM; in the experiment with T-47D breast, 13 µM; with TK-10 renal it was 7.12 µM; in the experiment on UACC-62 melanoma, 0.467 µM. Besides, the TGI in the experiment on HCT-116 colon was 14.4 µM; in the experiment on HOP-62 NSCLC, 26.9 µM; with RXF 393 renal, greater than 50.9 µM; in the experiment with T-47D breast it was greater than 100 µM; in the experiment on TK-10 renal it was greater than 75 µM; in the experiment on UACC-62 melanoma, 7.38 µM.
As for `O=C(Nc1ccccc1F)c1ccc(NC2=C(Cl)C(=O)N(Cc3ccccc3)C2=O)cc1`, the GI50 with HCT-116 colon is 8.4 µM; in the experiment on RXF 393 renal it was 5.09 µM; in the experiment with SK-MEL-5 melanoma it was 4.41 µM; in the experiment on T-47D breast it was 3.06 µM; with UACC-62 melanoma, 4.39 µM. In addition, the TGI turned out to be 20.6 µM in the experiment on HCT-116 colon; 16.6 µM in the experiment with RXF 393 renal; 16.2 µM in the experiment on SK-MEL-5 melanoma; 8.01 µM in the experiment with T-47D breast; 15.9 µM in the experiment on UACC-62 melanoma.
For the compound `CN1c2ccccc2C(C)(C)C12CC(c1ccc(Cl)c(S(=O)(=O)N3CCCC3)c1)=NO2` (stereo not given), the GI50 was 83.7 µM in the experiment with HOP-62 NSCLC; greater than 100 µM with RXF 393 renal; 0.456 µM in the experiment with SK-MEL-5 melanoma; greater than 100 µM in the experiment with T-47D breast; greater than 100 µM in the experiment with TK-10 renal. Further, the total growth inhibition concentration (TGI) in the experiment on HOP-62 NSCLC, with RXF 393 renal, in the experiment on SK-MEL-5 melanoma, with T-47D breast and in the experiment on TK-10 renal was greater than 100 µM throughout.
Turning to `O=[N+]([O-])c1ccc(O)c2ncccc12`, the TGI in the experiment on HCT-116 colon was > 100 µM and 12.5 µM; with RXF 393 renal, > 100 µM and 18.2 µM; with TK-10 renal it was > 100 µM and 30.3 µM; with UACC-62 melanoma it was > 100 µM and 11.6 µM. Besides, in the experiment on T-47D breast, the GI50 is 23 µM and 2.38 µM.

These data come from PubChem BioAssay (NCI).
